Patent US20230091047A1 (priority 2019, published 2023)
Read-outs that look alike come from different tables or passages of the source.

Columns and labels:
[1] = test system: HBV (HepG2.117 cell line, inducibly HBV producing); test: Anti-HBV activity: intracellular HBV DNA by real-time PCR in HepG2.117 cells after 3 days of treatment; type: cell-based, hepatitis B virus
Summary of the method: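 HepG2.117 cells replicate HBV under Tet-off control, without doxycycline. After induction of replication, cells were treated with serially diluted compound for 3 days, and intracellular HBV DNA was then quantified by real-time PCR with an HBV-specific primer set and probe.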

[2] = in vitro; type: cell-based; details: human, HepG2 or HepG2.117 cells, ATPlite, mean value
Summary of the method: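 Luminescent ATP quantitation served as the viability endpoint following a 3- or 4-day incubation with test compounds.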

[3] = Hepatitis B virus, HepG2.117, 72 h, HepG2.117 cells, 3 days of treatment, intracellular HBV DNA by real-time PCR; mean value; read-out: EC50 (μM, mean value)
[4] = 3-days incubation (unmarked values)
[5] = Hepatitis B virus, HepG2.117, 72 h, HepG2.117 cells, intracellular HBV DNA by real-time PCR, 3 days of treatment, mean value; read-out: EC50 (μM, mean value)
[6] = 3-days incubation (not marked with *)

COc1ccccc1-n1c(NCc2ccc3c(c2)OCO3)nc2c(c1=O)CCN(C(=O)c1ccc(Cl)c(Cl)c1)C2 [Compound C26, 2-{[(2H-1,3-benzodioxol-5-yl)methyl]amino}-7-(3,4-dichlorobenzoyl)-3-(2-methoxyphenyl)-5,6,7,8-tetrahydropyrido[3,4-d]pyrimidin-4(3H)-one]
EC50 [1, 3]: 1.72 µM
CC50 at 3 days [2, 4]: > 50 µM

CNC(=O)c1ccc(-n2c(NC(C)C)nc3c(c2=O)C[C@@H](C)N(C(=O)c2ccc(C(C)(F)F)cc2)C3)cc1 [Compound C573]
EC50 [1, 5]: 0.32 µM
CC50 at 3 days [2, 6]: > 50 µM

CNC(=O)c1ccc(-n2c(NC(C)C)nc3c(c2=O)C[C@@H](C)N(C(=O)c2ccc(Cl)c(C(F)F)c2)C3)cc1 [Compound C427]
EC50 [1, 5]: 0.05 µM
CC50 at 3 days [2, 6]: > 50 µM

CNC(=O)c1ncc(-n2c(NC(C)C)nc3c(c2=O)C[C@@H](C)N(C(=O)c2ccc(Cl)c(Cl)c2)C3)n1C [Compound C419]
EC50 [1, 5]: 0.19 µM
CC50 at 3 days [2, 6]: > 50 µM

CNC(=O)c1ccc(-n2c(NC(C)C)nc3c(c2=O)C[C@@H](C)N(C(=O)c2ccc(Cl)c(Cl)c2)C3)nc1 [Compound C304, 6-[(6R)-7-(3,4-dichlorobenzoyl)-6-methyl-4-oxo-2-[(propan-2-yl)amino]-5,6,7,8-tetrahydropyrido[3,4-d]pyrimidin-3(4H)-yl]-N-methylpyridine-3-carboxamide]
EC50 [1, 3]: 0.07 µM
CC50 at 3 days [2, 4]: > 50 µM

CC[C@H](C)Oc1nc2c(c(=O)n1-c1ccc(C(=O)NC)cc1)C[C@@H](C)N(C(=O)c1ccc(Cl)c(Cl)c1)C2 [Compound C398]
EC50 [1, 5]: 0.1 µM
CC50 at 3 days [2, 6]: 25.3 µM

C[C@H](Nc1nc2c(c(=O)n1-c1ccc(-n3cccn3)cc1)C[C@@H](C)N(C(=O)c1ccc(Cl)c(Cl)c1)C2)c1ccc(C(F)(F)F)cc1 [Compound C532]
EC50 [1, 5]: 0.16 µM
CC50 at 3 days [2, 6]: > 50 µM

CNC(=O)c1ccc(-n2c(NCc3ccc(OC)cc3)nc3c(c2=O)CCN(C(=O)c2ccc(Cl)c(Cl)c2)C3)cc1 [Compound C129, 4-[7-(3,4-dichlorobenzoyl)-2-{[(4-methoxyphenyl)methyl]amino}-4-oxo-5,6,7,8-tetrahydropyrido[3,4-d]pyrimidin-3(4H)-yl]-N-methylbenzamide]
EC50 [1, 3]: 0.44 µM
CC50 at 3 days [2, 4]: 44.4 µM

CC(C)Nc1nc2c(c(=O)n1-c1ccc(S(C)(=O)=O)cc1)CCN(C(=O)c1ccn3cncc3c1)C2 [Compound C361]
EC50 [1, 3]: > 50 µM
CC50 at 3 days [2, 4]: > 50 µM

COc1ccc(CNc2nc3c(c(=O)n2-c2ccccc2OC)CC(C)N(C(=O)c2ccc(Cl)c(Cl)c2)C3)cc1 (stereo not shown) [Compound C36, 7-(3,4-dichlorobenzoyl)-3-(2-methoxyphenyl)-2-{[(4-methoxyphenyl)methyl]amino}-6-methyl-5,6,7,8-tetrahydropyrido[3,4-d]pyrimidin-4(3H)-one]
EC50 [1, 3]: 1.26 µM
CC50 at 3 days [2, 4]: > 50 µM

Cc1c(C(=O)N2CCc3c(nc(NC(C)C)n(-c4ccc(S(C)(=O)=O)cc4)c3=O)C2)[nH]c2ccccc12 [Compound C147, 3-[4-(methanesulfonyl)phenyl]-7-(3-methyl-1H-indole-2-carbonyl)-2-[(propan-2-yl)amino]-5,6,7,8-tetrahydropyrido[3,4-d]pyrimidin-4(3H)-one]
EC50 [1, 3]: 1.88 µM
CC50 at 3 days [2, 4]: > 50 µM

CNC(=O)c1ccc(-n2c(NC(C)C)nc3c(c2=O)C[C@@H](C)N(C(=O)c2ccc(C)c(Br)c2)C3)cc1 [Compound C586]
EC50 [1, 5]: 0.21 µM
CC50 at 3 days [2, 6]: > 50 µM

CNC(=O)c1ccc(-n2c(NCc3n[nH]c(=O)[nH]3)nc3c(c2=O)C[C@@H](C)N(C(=O)c2ccc(Cl)c(Cl)c2)C3)cc1 [Compound C600]
EC50 [1, 5]: > 25 µM
CC50 at 3 days [2, 6]: > 50 µM

CNC(=O)c1ncc(-n2c(NC)nc3c(c2=O)C[C@@H](C)N(C(=O)c2ccc(Cl)c(Cl)c2)C3)cn1 [Compound C327, 5-[(6R)-7-(3,4-dichlorobenzoyl)-6-methyl-2-(methylamino)-4-oxo-5,6,7,8-tetrahydropyrido[3,4-d]pyrimidin-3(4H)-yl]-N-methylpyrimidine-2-carboxamide]
EC50 [1, 3]: 5.15 µM
CC50 at 3 days [2, 4]: > 50 µM

COc1ccccc1-n1c(NC(C)C)nc2c(c1=O)CCN(C(=O)c1ccc(Cl)c(Cl)c1)C2 [Compound C24, 7-(3,4-dichlorobenzoyl)-3-(2-methoxyphenyl)-2-[(propan-2-yl)amino]-5,6,7,8-tetrahydropyrido[3,4-d]pyrimidin-4(3H)-one]
EC50 [1, 3]: 2.25 µM
CC50 at 4 days ([2]; 4-days incubation (values marked with *)): > 50 µM

CC(C)Nc1nc2c(c(=O)n1-c1ccc(S(C)(=O)=O)cc1)CCN(C(=O)c1nc3ccc(Cl)cc3[nH]1)C2 [Compound C163, 7-(6-chloro-1H-benzimidazole-2-carbonyl)-3-[4-(methanesulfonyl)phenyl]-2-[(propan-2-yl)amino]-5,6,7,8-tetrahydropyrido[3,4-d]pyrimidin-4(3H)-one]
EC50 [1, 3]: 4.45 µM
CC50 at 3 days [2, 4]: > 50 µM

CNC(=O)c1ccc(-n2c(NC(C)C)nc3c(c2=O)C[C@@H](C)N(C(=O)c2ccc(Cl)c(OC(F)F)c2)C3)cc1 [Compound C679]
EC50 [1, 5]: 0.21 µM
CC50 at 3 days [2, 6]: > 50 µM

COc1ccc(CNc2nc3c(c(=O)[nH]2)CCN(C(=O)c2ccc(Cl)c(C#N)c2)C3)cc1 [Compound C103, 2-chloro-5-[2-{[(4-methoxyphenyl)methyl]amino}-4-oxo-4,5,6,8-tetrahydropyrido[3,4-d]pyrimidine-7(3H)-carbonyl]benzonitrile]
EC50 [1, 3]: 18.3 µM
CC50 at 3 days [2, 4]: > 50 µM

COc1ccccc1-n1c(N[C@H](C)C(F)(F)F)nc2c(c1=O)CCN(C(=O)c1ccc(Cl)c(Cl)c1)C2 (single isomer, unassigned) [Compound C101a]
EC50 ([1]; HepG2.117 cells, 3 days of treatment, intracellular HBV DNA by real-time PCR; mean value; read-out: EC50 (μM, mean value)): 22.1 µM
CC50 at 3 days [2, 4]: 36.9 µM

CC(C)Nc1nc2c(c(=O)n1-c1ccc(C(=O)NCCO)cc1)C[C@@H](C)N(C(=O)c1ccc(Cl)c(Cl)c1)C2 [Compound C204, 4-[(6R)-7-(3,4-dichlorobenzoyl)-6-methyl-4-oxo-2-[(propan-2-yl)amino]-5,6,7,8-tetrahydropyrido[3,4-d]pyrimidin-3(4H)-yl]-N-(2-hydroxyethyl)benzamide]
EC50 [1, 3]: 0.54 µM
CC50 at 3 days [2, 4]: > 50 µM

CNC(=O)OCC[C@H](Nc1nc2c(c(=O)n1-c1ccc(C(=O)NC)cc1)C[C@@H](C)N(C(=O)c1ccc(Cl)c(Cl)c1)C2)C1CC1 (single isomer, unassigned) [Compound C257, (3*S)-3-cyclopropyl-3-({(6R)-7-(3,4-dichlorobenzoyl)-6-methyl-3-[4-(methylcarbamoyl)phenyl]-4-oxo-3,4,5,6,7,8-hexahydropyrido[3,4-d]pyrimidin-2-yl}amino)propyl methylcarbamate]
EC50 [1, 3]: 0.84 µM
CC50 at 3 days [2, 4]: > 50 µM

CC(C)Nc1nc2c(c(=O)n1-c1ccc(S(C)(=O)=O)cc1)CCN(C(=O)c1ccc(Cl)c(Cl)c1)C2 [Compound C85, 7-(3,4-dichlorobenzoyl)-3-[4-(methanesulfonyl)phenyl]-2-[(propan-2-yl)amino]-5,6,7,8-tetrahydropyrido[3,4-d]pyrimidin-4(3H)-one]
EC50 [1, 3]: 0.85 µM
CC50 at 3 days [2, 4]: > 50 µM

CNC(=O)c1ccc(-n2c(NC(C)C)nc3c(c2=O)C[C@@H](C)N(C(=O)c2cc(C#N)c[nH]2)C3)cc1 [Compound C496]
EC50 [1, 5]: > 25 µM
CC50 at 3 days [2, 6]: > 50 µM

CNC(=O)c1ccc(-n2c(NCC3(C)CC3)nc3c(c2=O)C[C@@H](C)N(C(=O)c2ccc(Cl)c(Cl)c2)C3)cc1 [Compound C381]
EC50 [1, 5]: 0.95 µM
CC50 at 3 days [2, 6]: 31.8 µM

COc1ccc(CNc2nc3c(c(=O)n2-c2ccc(Br)cc2)CCN(C(=O)c2ccc(Cl)c(Cl)c2)C3)cc1 [Compound C125, 3-(4-bromophenyl)-7-(3,4-dichlorobenzoyl)-2-{[(4-methoxyphenyl)methyl]amino}-5,6,7,8-tetrahydropyrido[3,4-d]pyrimidin-4(3H)-one]
EC50 [1, 3]: 1.64 µM
CC50 at 3 days [2, 4]: > 50 µM

CNC(=O)c1ccc(-n2c(NC(C)C)nc3c(c2=O)C[C@@H](C)N(C(=O)c2ccc4cncc(Br)c4c2)C3)cc1 [Compound C491]
EC50 [1, 5]: 15.3 µM
CC50 at 3 days [2, 6]: > 50 µM

CNC(=O)c1ccc(-n2c(NC(C)C)nc3c(c2=O)C[C@@H](C)N(C(=O)c2ccc(Cl)c(C#N)c2)C3)cc1 [Compound C686]
EC50 [1, 5]: 0.2 µM
CC50 at 3 days [2, 6]: > 50 µM

CNC(=O)c1ccc(-n2c(NC(C)C)nc3c(c2=O)C[C@@H](C)N(C(=O)c2ccc(Cl)c(C(F)(F)F)c2)C3)cc1Cl [Compound C642]
EC50 [1, 5]: 0.04 µM
CC50 at 3 days [2, 6]: > 50 µM

COc1ccccc1-n1c(NCc2cncs2)nc2c(c1=O)CCN(C(=O)c1ccc(Cl)c(Cl)c1)C2 [Compound C19, 7-(3,4-dichlorobenzoyl)-3-(2-methoxyphenyl)-2-{[(1,3-thiazol-5-yl)methyl]amino}-5,6,7,8-tetrahydropyrido[3,4-d]pyrimidin-4(3H)-one]
EC50 [1, 3]: 8.77 µM
CC50 at 3 days [2, 4]: > 50 µM

CNC(=O)c1ccc(-n2c(N3CCCCCC3)nc3c(c2=O)C[C@@H](C)N(C(=O)c2ccc(Cl)c(Cl)c2)C3)cc1 [Compound C467]
EC50 [1, 5]: 0.1 µM
CC50 at 3 days [2, 6]: 30 µM

CC(C)Nc1nc2c(c(=O)n1-c1ccc(-c3n[nH]c(Br)n3)cc1)C[C@@H](C)N(C(=O)c1ccc(Cl)c(Cl)c1)C2 [Compound C249, (6R)-3-[4-(5-bromo-1H-1,2,4-triazol-3-yl)phenyl]-7-(3,4-dichlorobenzoyl)-6-methyl-2-[(propan-2-yl)amino]-5,6,7,8-tetrahydropyrido[3,4-d]pyrimidin-4(3H)-one]
EC50 [1, 3]: 0.49 µM
CC50 at 3 days [2, 4]: > 50 µM

CNC(=O)c1ccc(-n2c(NC(C)c3cccs3)nc3c(c2=O)C[C@@H](C)N(C(=O)c2ccc(Cl)c(Cl)c2)C3)cc1 (stereo partly shown) [Compound C550]
EC50 [1, 5]: 0.54 µM
CC50 at 3 days [2, 6]: 30.2 µM
